# Measured values as given in ChEMBL document CHEMBL4033728, “Synthesis and structure-activity relationship study of novel quinazolinone-based inhibitors of MurA” (Bioorg Med Chem Lett, 2017).
# pIC50: −log10 of the molar value.
# System: Escherichia coli
# Experiment: Inhibition of Escherichia coli MurA assessed as residual enzyme activity at 100 uM using UDP-GlcNAc and PEP as substrate incubated for 15 mins by Malachite green method
row,Activity [%],SMILES
1,95,O=c1[nH]c(-c2ccc(OCc3cccc(Cl)c3)cc2)nc2ccccc12
2,72,O=c1[nH]c(-c2ccc(Cl)cc2)nc2ccccc12
3,74,O=C(O)Cn1c(-c2ccoc2)nc2ccccc2c1=O
4,83,O=c1[nH]c(-c2ccc3c(c2)OCO3)nc2ccccc12
5,98,O=c1[nH]c(-c2cccc(OCc3cccc(Cl)c3)c2)nc2ccccc12
6,91,O=c1c2ccccc2nc(-c2ccco2)n1CCO
7,85,O=C(O)c1ccc(COc2cccc(-c3nc4ccccc4c(=O)[nH]3)c2)cc1
8,84,O=c1[nH]c(-c2ccc3cccc(O)c3n2)nc2ccccc12
9,58,O=Cc1ccc(-c2nc3ccccc3c(=O)[nH]2)cc1
10,80,O=c1[nH]c(-c2cccc(O)c2)nc2ccccc12
11,54,N#Cc1ccc(-c2nc3ccccc3c(=O)[nH]2)cc1
12,97,CN(C)c1ccc(-c2nc(O)c3ccccc3n2)cc1
13,88,O=c1[nH]c(-c2c[nH]cn2)nc2ccccc12
14,86,O=C(O)c1ccc(-c2nc3ccccc3c(=O)[nH]2)cc1
15,100,O=c1[nH]c(-c2ccc(-c3cc[nH]n3)o2)nc2ccccc12

# System: not listed separately
# Experiment: Inhibition of Escherichia coli MurA using UDP-GlcNAc and PEP as substrate incubated for 15 mins by Malachite green method
row,SMILES,pIC50
1,O=c1[nH]c(-c2cccc(OCc3ccc(Cl)cc3)c2)nc2ccccc12,5.10
2,O=c1[nH]c(-c2ccc(Br)o2)nc2ccccc12,4.25
3,O=c1[nH]c(-c2ccc(OCc3ccccc3)cc2)nc2ccsc12,4.52 to 4.66
4,O=c1[nH]c(-c2ccc(OCc3ccccc3)cc2)nc2ccccc12,4.44
5,O=c1[nH]c(/C=C/c2ccccc2)nc2ccccc12,4.29
6,Cn1c(-c2ccco2)nc2ccccc2c1=O,4.14
7,O=c1[nH]c(-c2cccc(OCc3ccc(F)cc3)c2)nc2ccccc12,4.72
8,Cc1ccc(-c2nc3ccccc3c(=O)[nH]2)o1,4.09
9,O=c1[nH]c(-c2ccco2)nc2ccsc12,4.03
10,O=c1[nH]c(-c2ccc(-c3ccccc3)cc2)nc2ccccc12,4.68
11,O=c1[nH]c(-c2ccco2)nc2ccccc12,4.00
12,COC(=O)c1ccc(COc2cccc(-c3nc4ccccc4c(=O)[nH]3)c2)cc1,4.68
13,O=c1[nH]c(-c2cccc(OCc3ccccc3)c2)nc2ccccc12,4.64
14,O=c1[nH]c(-c2ccc(-c3ccccc3)s2)nc2ccccc12,4.77
15,O=c1[nH]c(-c2ccc(-c3ccccc3)s2)nc2ccsc12,4.52 to 4.66
16,CCCCCCCOc1ccc(-c2nc3ccccc3c(=O)[nH]2)cc1,4.08

# Further lines, results first:
row,pIC50,SMILES
1,4.33,O=c1[nH]c(-c2ccc([N+](=O)[O-])o2)nc2ccccc12
2,4.06,CC(C)n1c(-c2ccc([N+](=O)[O-])o2)nc2ccccc2c1=O

# System: Staphylococcus aureus
# Experiment: Antibacterial activity against Staphylococcus aureus ATCC 29213 incubated for 18 to 24 hrs by broth microdilution method
# Type: functional
row,SMILES,MIC [µg/mL]
1,O=c1[nH]c(-c2cccc(OCc3ccc(Cl)cc3)c2)nc2ccccc12,> 128
2,O=c1[nH]c(-c2ccc(Br)o2)nc2ccccc12,> 128
3,O=c1[nH]c(-c2ccc(OCc3ccccc3)cc2)nc2ccsc12,≥ 128
4,O=c1[nH]c(-c2ccc(OCc3ccccc3)cc2)nc2ccccc12,> 128
5,O=c1[nH]c(/C=C/c2ccccc2)nc2ccccc12,> 128
6,Cn1c(-c2ccco2)nc2ccccc2c1=O,> 128
7,O=c1[nH]c(-c2cccc(OCc3ccc(F)cc3)c2)nc2ccccc12,> 128
8,Cc1ccc(-c2nc3ccccc3c(=O)[nH]2)o1,> 128
9,O=c1[nH]c(-c2ccco2)nc2ccsc12,> 128
10,O=c1[nH]c(-c2ccc(-c3ccccc3)cc2)nc2ccccc12,> 128
11,O=c1[nH]c(-c2ccco2)nc2ccccc12,> 128
12,COC(=O)c1ccc(COc2cccc(-c3nc4ccccc4c(=O)[nH]3)c2)cc1,> 128
13,O=c1[nH]c(-c2cccc(OCc3ccccc3)c2)nc2ccccc12,> 128
14,O=c1[nH]c(-c2ccc(-c3ccccc3)s2)nc2ccccc12,> 128
15,O=c1[nH]c(-c2ccc(-c3ccccc3)s2)nc2ccsc12,≥ 128
16,CCCCCCCOc1ccc(-c2nc3ccccc3c(=O)[nH]2)cc1,> 128
17,O=c1[nH]c(-c2ccc(-c3cc[nH]n3)o2)nc2ccccc12,> 128

# Other lines, results leading:
row,MIC [µg/mL],SMILES
1,8,O=c1[nH]c(-c2ccc([N+](=O)[O-])o2)nc2ccccc12
2,> 128,O=c1[nH]c(-c2ccc(OCc3cccc(Cl)c3)cc2)nc2ccccc12
3,> 128,O=c1[nH]c(-c2ccc(Cl)cc2)nc2ccccc12
4,> 128,O=C(O)Cn1c(-c2ccoc2)nc2ccccc2c1=O
5,> 128,O=c1[nH]c(-c2ccc3c(c2)OCO3)nc2ccccc12
6,> 128,O=c1[nH]c(-c2cccc(OCc3cccc(Cl)c3)c2)nc2ccccc12
7,> 128,O=c1c2ccccc2nc(-c2ccco2)n1CCO
8,> 128,O=C(O)c1ccc(COc2cccc(-c3nc4ccccc4c(=O)[nH]3)c2)cc1
9,> 128,O=c1[nH]c(-c2ccc3cccc(O)c3n2)nc2ccccc12
10,> 128,O=Cc1ccc(-c2nc3ccccc3c(=O)[nH]2)cc1
11,> 128,O=c1[nH]c(-c2cccc(O)c2)nc2ccccc12
12,> 128,N#Cc1ccc(-c2nc3ccccc3c(=O)[nH]2)cc1
13,8,CC(C)n1c(-c2ccc([N+](=O)[O-])o2)nc2ccccc2c1=O
14,> 128,CN(C)c1ccc(-c2nc(O)c3ccccc3n2)cc1
15,> 128,O=c1[nH]c(-c2c[nH]cn2)nc2ccccc12
16,> 128,O=C(O)c1ccc(-c2nc3ccccc3c(=O)[nH]2)cc1

# System: Escherichia coli
# Experiment: Antibacterial activity against Escherichia coli ATCC 25922 incubated for 18 to 24 hrs by broth microdilution method
# Type: functional
row,SMILES,MIC [µg/mL]
1,O=c1[nH]c(-c2cccc(OCc3ccc(Cl)cc3)c2)nc2ccccc12,> 128
2,O=c1[nH]c(-c2ccc(Br)o2)nc2ccccc12,> 128
3,O=c1[nH]c(-c2ccc(OCc3ccccc3)cc2)nc2ccsc12,≥ 128
4,O=c1[nH]c(-c2ccc(OCc3ccccc3)cc2)nc2ccccc12,> 128
5,O=c1[nH]c(/C=C/c2ccccc2)nc2ccccc12,> 128
6,Cn1c(-c2ccco2)nc2ccccc2c1=O,> 128
7,O=c1[nH]c(-c2cccc(OCc3ccc(F)cc3)c2)nc2ccccc12,> 128
8,Cc1ccc(-c2nc3ccccc3c(=O)[nH]2)o1,> 128
9,O=c1[nH]c(-c2ccco2)nc2ccsc12,> 128
10,O=c1[nH]c(-c2ccc(-c3ccccc3)cc2)nc2ccccc12,> 128
11,O=c1[nH]c(-c2ccco2)nc2ccccc12,> 128
12,COC(=O)c1ccc(COc2cccc(-c3nc4ccccc4c(=O)[nH]3)c2)cc1,> 128
13,O=c1[nH]c(-c2cccc(OCc3ccccc3)c2)nc2ccccc12,> 128
14,O=c1[nH]c(-c2ccc(-c3ccccc3)s2)nc2ccccc12,> 128
15,O=c1[nH]c(-c2ccc(-c3ccccc3)s2)nc2ccsc12,> 128
16,CCCCCCCOc1ccc(-c2nc3ccccc3c(=O)[nH]2)cc1,> 128
17,O=c1[nH]c(-c2ccc(-c3cc[nH]n3)o2)nc2ccccc12,> 128

# The remaining lines, values ahead:
row,MIC [µg/mL],SMILES
1,1,O=c1[nH]c(-c2ccc([N+](=O)[O-])o2)nc2ccccc12
2,> 128,O=c1[nH]c(-c2ccc(OCc3cccc(Cl)c3)cc2)nc2ccccc12
3,> 128,O=c1[nH]c(-c2ccc(Cl)cc2)nc2ccccc12
4,> 128,O=C(O)Cn1c(-c2ccoc2)nc2ccccc2c1=O
5,> 128,O=c1[nH]c(-c2ccc3c(c2)OCO3)nc2ccccc12
6,> 128,O=c1[nH]c(-c2cccc(OCc3cccc(Cl)c3)c2)nc2ccccc12
7,> 128,O=c1c2ccccc2nc(-c2ccco2)n1CCO
8,> 128,O=C(O)c1ccc(COc2cccc(-c3nc4ccccc4c(=O)[nH]3)c2)cc1
9,> 128,O=c1[nH]c(-c2ccc3cccc(O)c3n2)nc2ccccc12
10,> 128,O=Cc1ccc(-c2nc3ccccc3c(=O)[nH]2)cc1
11,> 128,O=c1[nH]c(-c2cccc(O)c2)nc2ccccc12
12,> 128,N#Cc1ccc(-c2nc3ccccc3c(=O)[nH]2)cc1
13,2,CC(C)n1c(-c2ccc([N+](=O)[O-])o2)nc2ccccc2c1=O
14,> 128,CN(C)c1ccc(-c2nc(O)c3ccccc3n2)cc1
15,> 128,O=c1[nH]c(-c2c[nH]cn2)nc2ccccc12
16,> 128,O=C(O)c1ccc(-c2nc3ccccc3c(=O)[nH]2)cc1
